One assay addresses T1, DNA polymerase α (Homo sapiens, UniProt P09884).
T1 construct: Human DNA polymerases, a, β, and γ, were purified from 5.0 ml of packed K562 cells; endogenous in cells; host or cells: K562 cells
The assay can be described thus: Inhibition of [3H]dGTP incorporation into DNA by host DNA polymerase α. The format is biochemical. To be noted: for IC50: incorporation of 1 µM [3H]dGTP into DNA. Here is the method:
(§1) HSV DNA polymerase was purified from H.Ep.-2 cells infected with HSV-1. Approximately 4 x 10^8 cells were infected with virus at a multiplicity of infection of 10 CCID50/cell. After a 1 hr adsorption period, the unattached virus was waxhed from the cells and the cultures were returned to the incubator at 37°C for another 8 hr. The cells were collected by centrifugation and mixed with a 0.3 M potassium phosphate buffer, pH 7.5, containing 0.3% Triton X-100 and 10% glycerol. The HSV DNA polymerase was purified approximately 288-fold from this crude extract, as described by Derse et al. (J. Biol. Chem. 257:10251, 1982). The specific activity of the HSV DNA polymerase was 4140 units/mg protein. Human DNA polymerases, a, β, and γ, were purified from 5.0 ml of packed K562 cells grown in cell culture as previously described (Parker et al., J. Biol. Chem. 266:1754, 1991). The specific activities of DNA polymerases α, β, and γ used in these studies were approximately 34, 1600, and 8 units/mg protein, respectively. One unit of enzyme activity is defined as the amount of enzyme needed to incorporate 1 nmol of [^3H]dGTP into acid-precipitable material per hour at 37°C, using gapped DNA as a template. HSV DNA polymerase activity was measured in 50 µl volumes containing 50 mM Tris, pH 8.0, 3 mM MgCl2, 0.5 mM dithiothreitol, 0.2 mg/ml bovine serum albumin, 0.2 M KCl, 12.5 µg/ml gapped DNA, 10 µM [^3H]dGTP (12 Ci/mmol), and 100 µM each of dATP, dCTP, and TTP. DNA polymerase α activity was measured in 50 µl volumes containing 50 mM Tris, pH 8.0, 1 mg/ml bovine serum albumin, 10 mM MgCl2, 1 mM dithiothreitol, 100 µg/ml gapped duplex DNA, 10 µM [^3H]dGTP (1 Ci/mmol), and 50 µM of each dATP, dCTP and TTP. DNA polymerase β and γ activities were measured as described for DNA polymerase α, except that the reactions included 100 mM KCl. After incubation for the desired time, the DNA in each sample was precipitated onto glass fiber filters using a 5% trichloroacetic acid solution containing 10 mM pyrophosphate. The filters were then washed three times with this solution followed by two washes with 95% ethanol, dried, and counted for radioactivity.
(§2) 2'CdG-TP was a potent competitive inhibitor of the incorporation of [^3H]dGTP into DNA by both the HSV DNA polymerase and the host DNA polymerase α (Fig. 9).
(§3) Under similar incubation conditions, the concentration of D-2'CdG-TP required to inhibit the incorporation of 1 µM [^3H]dGTP into the DNA by 50% was 2 µM with DNA polymerase a, but was 2200 and 300 µM for DNA polymerase β and γ, respectively (Table 4). […]

Another assay has as its target T2, HSV DNA polymerase (Human herpesvirus 1, UniProt P04293).
T2 construct: HSV DNA polymerase was purified from H.Ep.-2 cells infected with HSV-1; made in house; host or cells: H.Ep.-2 cells infected with HSV-1
Description: Inhibition of [3H]dGTP incorporation into DNA by purified HSV DNA polymerase. The format is biochemical, HSV-1. The conditions noted are these: for IC50: incorporation of 1 µM [3H]dGTP into DNA. On the procedure: as §1, §2, §3

In a further assay the target is T3, DNA polymerase γ (Homo sapiens, UniProt P54098).
T3 sequence (P54098 26-1239): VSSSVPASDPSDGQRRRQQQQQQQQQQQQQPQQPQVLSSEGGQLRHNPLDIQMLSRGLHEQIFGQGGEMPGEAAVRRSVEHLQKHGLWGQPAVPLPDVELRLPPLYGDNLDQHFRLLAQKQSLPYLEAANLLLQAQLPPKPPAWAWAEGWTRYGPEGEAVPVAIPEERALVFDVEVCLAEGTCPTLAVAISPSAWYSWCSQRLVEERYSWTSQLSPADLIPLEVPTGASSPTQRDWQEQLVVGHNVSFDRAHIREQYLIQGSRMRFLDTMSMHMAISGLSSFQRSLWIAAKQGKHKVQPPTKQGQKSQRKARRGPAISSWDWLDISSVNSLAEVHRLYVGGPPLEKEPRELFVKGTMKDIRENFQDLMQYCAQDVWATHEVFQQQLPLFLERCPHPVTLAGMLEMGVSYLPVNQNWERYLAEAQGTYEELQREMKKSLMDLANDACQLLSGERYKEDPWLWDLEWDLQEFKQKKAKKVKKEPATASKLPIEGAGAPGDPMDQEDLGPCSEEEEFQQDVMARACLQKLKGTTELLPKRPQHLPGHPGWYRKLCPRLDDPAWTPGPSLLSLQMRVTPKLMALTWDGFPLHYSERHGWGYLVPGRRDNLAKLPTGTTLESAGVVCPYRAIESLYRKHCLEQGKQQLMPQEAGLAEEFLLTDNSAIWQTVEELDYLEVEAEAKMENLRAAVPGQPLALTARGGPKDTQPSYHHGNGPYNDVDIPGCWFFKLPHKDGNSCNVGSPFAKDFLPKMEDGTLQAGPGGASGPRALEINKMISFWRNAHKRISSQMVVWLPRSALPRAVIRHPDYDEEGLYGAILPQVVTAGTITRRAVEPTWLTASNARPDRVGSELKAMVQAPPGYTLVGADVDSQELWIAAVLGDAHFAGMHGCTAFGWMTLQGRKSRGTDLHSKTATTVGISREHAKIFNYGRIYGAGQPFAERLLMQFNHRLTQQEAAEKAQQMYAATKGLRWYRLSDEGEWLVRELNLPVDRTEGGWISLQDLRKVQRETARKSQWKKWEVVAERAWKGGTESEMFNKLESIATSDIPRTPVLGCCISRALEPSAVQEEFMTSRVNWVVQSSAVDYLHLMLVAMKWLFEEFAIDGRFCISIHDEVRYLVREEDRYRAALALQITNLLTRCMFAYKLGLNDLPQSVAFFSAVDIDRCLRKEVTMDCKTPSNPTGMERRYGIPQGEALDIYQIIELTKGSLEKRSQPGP
T3 sequence (Q9UHN1 26-485 partner): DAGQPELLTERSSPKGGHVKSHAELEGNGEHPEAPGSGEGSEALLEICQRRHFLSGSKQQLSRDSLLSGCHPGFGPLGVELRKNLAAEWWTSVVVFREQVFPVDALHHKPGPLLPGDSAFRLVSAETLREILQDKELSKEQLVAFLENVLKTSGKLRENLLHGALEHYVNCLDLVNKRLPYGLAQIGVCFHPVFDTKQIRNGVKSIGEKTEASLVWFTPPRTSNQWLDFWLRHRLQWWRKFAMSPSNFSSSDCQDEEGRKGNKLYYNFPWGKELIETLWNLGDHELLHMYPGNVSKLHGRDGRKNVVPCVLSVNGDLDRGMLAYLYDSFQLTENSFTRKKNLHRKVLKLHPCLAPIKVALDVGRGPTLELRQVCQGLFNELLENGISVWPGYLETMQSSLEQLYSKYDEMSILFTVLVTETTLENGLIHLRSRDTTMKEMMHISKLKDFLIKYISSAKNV
Description: Inhibition of [3H]dGTP incorporation into DNA by DNA polymerase γ. The format is biochemical. The conditions noted are these: incorporation of 1 µM [3H]dGTP into DNA. On the procedure:
(§4) HSV DNA polymerase was purified from H.Ep.-2 cells infected with HSV-1. Approximately 4 x 10^8 cells were infected with virus at a multiplicity of infection of 10 CCID50/cell. After a 1 hr adsorption period, the unattached virus was waxhed from the cells and the cultures were returned to the incubator at 37°C for another 8 hr. The cells were collected by centrifugation and mixed with a 0.3 M potassium phosphate buffer, pH 7.5, containing 0.3% Triton X-100 and 10% glycerol. The HSV DNA polymerase was purified approximately 288-fold from this crude extract, as described by Derse et al. (J. Biol. Chem. 257:10251, 1982). The specific activity of the HSV DNA polymerase was 4140 units/mg protein. […] HSV DNA polymerase activity was measured in 50 µl volumes containing 50 mM Tris, pH 8.0, 3 mM MgCl2, 0.5 mM dithiothreitol, 0.2 mg/ml bovine serum albumin, 0.2 M KCl, 12.5 µg/ml gapped DNA, 10 µM [^3H]dGTP (12 Ci/mmol), and 100 µM each of dATP, dCTP, and TTP. DNA polymerase α activity was measured in 50 µl volumes containing 50 mM Tris, pH 8.0, 1 mg/ml bovine serum albumin, 10 mM MgCl2, 1 mM dithiothreitol, 100 µg/ml gapped duplex DNA, 10 µM [^3H]dGTP (1 Ci/mmol), and 50 µM of each dATP, dCTP and TTP. DNA polymerase β and γ activities were measured as described for DNA polymerase α, except that the reactions included 100 mM KCl. […]

Another assay concerns the target T4, DNA polymerase β (Homo sapiens, UniProt P06746).
T4 construct: Human DNA polymerases, a, β, and γ, were purified from 5.0 ml of packed K562 cells; endogenous in cells; host or cells: K562 cells
The assay can be described thus: Inhibition of [3H]dGTP incorporation into DNA by DNA polymerase β. The conditions noted are these: incorporation of 1 µM [3H]dGTP into DNA. In kind it is biochemical. On the procedure: as §4

T1 sequence (P09884 whole entry): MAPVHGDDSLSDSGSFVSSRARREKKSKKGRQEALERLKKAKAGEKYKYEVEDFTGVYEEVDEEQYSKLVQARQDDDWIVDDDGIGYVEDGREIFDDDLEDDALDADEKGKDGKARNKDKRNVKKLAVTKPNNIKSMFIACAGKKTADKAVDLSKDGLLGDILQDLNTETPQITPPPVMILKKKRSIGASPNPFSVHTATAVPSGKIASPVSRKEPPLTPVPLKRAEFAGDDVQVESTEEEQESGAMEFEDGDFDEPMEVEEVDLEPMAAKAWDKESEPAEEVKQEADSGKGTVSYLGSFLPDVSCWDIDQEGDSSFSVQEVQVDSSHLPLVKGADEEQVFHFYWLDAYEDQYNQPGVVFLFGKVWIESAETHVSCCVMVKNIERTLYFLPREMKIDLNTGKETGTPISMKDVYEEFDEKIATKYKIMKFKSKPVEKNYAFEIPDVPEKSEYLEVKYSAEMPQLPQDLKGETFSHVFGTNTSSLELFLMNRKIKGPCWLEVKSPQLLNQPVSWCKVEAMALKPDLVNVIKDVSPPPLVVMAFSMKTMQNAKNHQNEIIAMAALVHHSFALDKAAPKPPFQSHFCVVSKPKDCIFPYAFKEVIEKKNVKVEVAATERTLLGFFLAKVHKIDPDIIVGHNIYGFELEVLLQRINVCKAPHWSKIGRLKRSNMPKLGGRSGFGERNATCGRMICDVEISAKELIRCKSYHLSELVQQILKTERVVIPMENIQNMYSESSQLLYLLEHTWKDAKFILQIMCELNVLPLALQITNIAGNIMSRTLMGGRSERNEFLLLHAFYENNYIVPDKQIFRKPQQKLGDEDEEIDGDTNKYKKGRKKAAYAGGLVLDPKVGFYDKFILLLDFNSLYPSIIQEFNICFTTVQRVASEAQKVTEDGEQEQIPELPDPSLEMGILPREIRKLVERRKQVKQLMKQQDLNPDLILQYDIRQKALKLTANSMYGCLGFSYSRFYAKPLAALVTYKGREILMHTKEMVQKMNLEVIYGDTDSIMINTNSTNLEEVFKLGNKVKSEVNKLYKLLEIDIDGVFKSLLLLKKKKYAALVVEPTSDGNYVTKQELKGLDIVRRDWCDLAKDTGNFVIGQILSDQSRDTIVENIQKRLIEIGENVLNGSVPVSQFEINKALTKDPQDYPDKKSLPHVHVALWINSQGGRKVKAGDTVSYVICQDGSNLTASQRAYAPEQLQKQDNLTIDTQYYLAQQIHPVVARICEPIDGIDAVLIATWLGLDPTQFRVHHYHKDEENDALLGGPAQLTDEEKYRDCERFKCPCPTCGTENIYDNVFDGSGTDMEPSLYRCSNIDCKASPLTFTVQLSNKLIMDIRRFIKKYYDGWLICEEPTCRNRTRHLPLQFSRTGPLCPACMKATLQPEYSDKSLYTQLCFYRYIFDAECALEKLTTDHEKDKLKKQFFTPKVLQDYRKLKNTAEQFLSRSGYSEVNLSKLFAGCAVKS
T1 sequence (Q14181 whole entry partner): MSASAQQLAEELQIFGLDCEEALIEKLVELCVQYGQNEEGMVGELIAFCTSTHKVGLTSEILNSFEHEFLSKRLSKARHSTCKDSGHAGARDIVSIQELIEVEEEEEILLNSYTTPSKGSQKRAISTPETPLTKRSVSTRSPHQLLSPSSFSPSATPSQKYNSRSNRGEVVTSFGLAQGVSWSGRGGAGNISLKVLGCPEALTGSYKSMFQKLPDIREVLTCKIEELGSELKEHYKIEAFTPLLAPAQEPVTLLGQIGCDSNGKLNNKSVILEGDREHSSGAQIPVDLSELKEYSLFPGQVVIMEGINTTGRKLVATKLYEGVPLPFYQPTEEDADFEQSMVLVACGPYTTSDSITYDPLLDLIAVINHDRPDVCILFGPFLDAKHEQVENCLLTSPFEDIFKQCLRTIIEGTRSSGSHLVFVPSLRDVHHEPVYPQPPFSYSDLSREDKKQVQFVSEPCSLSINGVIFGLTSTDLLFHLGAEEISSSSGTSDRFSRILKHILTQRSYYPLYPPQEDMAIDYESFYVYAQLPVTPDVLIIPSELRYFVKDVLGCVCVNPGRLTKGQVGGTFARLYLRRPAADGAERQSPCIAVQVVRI
T1 sequence (P49642 whole entry partner): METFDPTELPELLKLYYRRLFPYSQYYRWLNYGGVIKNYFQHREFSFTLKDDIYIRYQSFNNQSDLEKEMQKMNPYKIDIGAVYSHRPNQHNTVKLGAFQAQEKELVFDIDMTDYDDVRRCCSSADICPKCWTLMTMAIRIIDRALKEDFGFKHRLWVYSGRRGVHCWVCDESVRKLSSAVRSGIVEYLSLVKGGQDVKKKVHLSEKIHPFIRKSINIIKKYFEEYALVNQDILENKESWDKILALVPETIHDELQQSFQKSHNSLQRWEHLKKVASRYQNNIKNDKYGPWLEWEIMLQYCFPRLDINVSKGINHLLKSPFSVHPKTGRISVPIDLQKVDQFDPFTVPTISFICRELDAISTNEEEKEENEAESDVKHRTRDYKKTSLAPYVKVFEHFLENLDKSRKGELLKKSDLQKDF
T1 sequence (P49643 whole entry partner): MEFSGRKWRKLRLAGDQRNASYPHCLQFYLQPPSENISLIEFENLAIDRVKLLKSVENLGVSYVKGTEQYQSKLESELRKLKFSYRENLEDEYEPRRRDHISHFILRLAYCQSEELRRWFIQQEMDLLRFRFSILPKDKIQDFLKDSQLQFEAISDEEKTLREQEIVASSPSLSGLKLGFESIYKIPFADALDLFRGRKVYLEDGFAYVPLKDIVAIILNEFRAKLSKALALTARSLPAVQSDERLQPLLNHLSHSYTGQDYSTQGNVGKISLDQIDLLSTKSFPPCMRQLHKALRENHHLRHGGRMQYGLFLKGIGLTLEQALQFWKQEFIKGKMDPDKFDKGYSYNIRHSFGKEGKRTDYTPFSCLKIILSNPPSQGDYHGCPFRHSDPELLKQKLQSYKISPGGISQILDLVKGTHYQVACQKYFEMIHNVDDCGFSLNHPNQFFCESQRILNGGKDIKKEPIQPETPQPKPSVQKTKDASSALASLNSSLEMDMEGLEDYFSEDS
T2 sequence (P10226 whole entry): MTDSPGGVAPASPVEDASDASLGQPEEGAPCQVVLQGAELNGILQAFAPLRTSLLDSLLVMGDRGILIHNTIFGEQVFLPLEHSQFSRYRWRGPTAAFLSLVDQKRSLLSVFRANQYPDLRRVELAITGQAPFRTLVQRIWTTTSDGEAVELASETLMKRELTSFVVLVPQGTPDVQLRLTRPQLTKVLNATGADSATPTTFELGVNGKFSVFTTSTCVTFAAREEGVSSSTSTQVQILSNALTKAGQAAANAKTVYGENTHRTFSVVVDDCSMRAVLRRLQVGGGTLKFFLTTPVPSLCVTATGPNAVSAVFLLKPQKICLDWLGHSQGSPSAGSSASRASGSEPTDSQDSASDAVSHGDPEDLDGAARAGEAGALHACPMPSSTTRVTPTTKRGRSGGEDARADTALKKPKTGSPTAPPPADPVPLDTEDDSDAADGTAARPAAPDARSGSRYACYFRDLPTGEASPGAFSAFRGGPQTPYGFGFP
T2 sequence (P04293 whole entry): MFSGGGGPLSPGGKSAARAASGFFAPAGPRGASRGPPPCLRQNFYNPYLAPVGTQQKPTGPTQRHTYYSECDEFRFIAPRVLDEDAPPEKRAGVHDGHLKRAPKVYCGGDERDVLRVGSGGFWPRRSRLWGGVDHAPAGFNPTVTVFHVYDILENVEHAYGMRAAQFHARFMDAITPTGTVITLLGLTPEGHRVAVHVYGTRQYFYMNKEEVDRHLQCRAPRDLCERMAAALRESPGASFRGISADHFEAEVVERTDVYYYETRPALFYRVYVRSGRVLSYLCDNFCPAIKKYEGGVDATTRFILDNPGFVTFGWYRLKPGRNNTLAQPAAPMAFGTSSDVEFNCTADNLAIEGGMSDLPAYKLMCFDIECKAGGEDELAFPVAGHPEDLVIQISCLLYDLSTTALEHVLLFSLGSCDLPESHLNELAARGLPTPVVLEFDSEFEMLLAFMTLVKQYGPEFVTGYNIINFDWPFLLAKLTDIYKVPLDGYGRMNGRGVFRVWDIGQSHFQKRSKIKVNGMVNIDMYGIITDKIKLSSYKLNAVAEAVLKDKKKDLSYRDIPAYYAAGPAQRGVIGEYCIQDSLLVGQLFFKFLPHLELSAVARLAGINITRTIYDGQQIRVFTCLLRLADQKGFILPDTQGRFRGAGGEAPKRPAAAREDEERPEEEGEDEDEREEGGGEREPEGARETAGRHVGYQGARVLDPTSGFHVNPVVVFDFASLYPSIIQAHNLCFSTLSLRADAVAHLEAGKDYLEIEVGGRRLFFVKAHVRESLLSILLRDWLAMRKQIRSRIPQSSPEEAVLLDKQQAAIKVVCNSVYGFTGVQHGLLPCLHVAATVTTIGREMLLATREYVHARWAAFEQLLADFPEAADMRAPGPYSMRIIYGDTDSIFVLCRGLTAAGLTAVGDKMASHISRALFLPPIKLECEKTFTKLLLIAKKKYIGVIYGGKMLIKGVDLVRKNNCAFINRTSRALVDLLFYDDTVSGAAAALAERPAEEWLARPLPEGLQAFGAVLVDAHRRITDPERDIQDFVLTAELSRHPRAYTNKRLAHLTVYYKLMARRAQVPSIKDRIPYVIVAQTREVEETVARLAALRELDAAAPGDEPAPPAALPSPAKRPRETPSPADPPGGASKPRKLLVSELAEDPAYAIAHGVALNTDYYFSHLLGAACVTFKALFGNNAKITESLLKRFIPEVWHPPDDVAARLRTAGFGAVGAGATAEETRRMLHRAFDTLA

The term Ki denotes a measure of affinity in units of concentration, obtained from inhibition or displacement. A higher Ki goes with lower affinity. A word on the IC50: it is the concentration that inhibits the measured activity by half. The low end stands for greater potency, the high end for weaker potency. Regarding `Nc1nc2c(ncn2[C@@H]2C[C@H](COP(=O)(O)OP(=O)(O)OP(=O)(O)O)[C@@H](O)C2)c(=O)[nH]1` [D-2'CdG-TP], the Ki/Km ratio result on DNA polymerase α (Km of dGTP) and at HSV DNA polymerase (Km of dGTP) was “approximately 1” throughout. For the same molecule, the Ki came out at 0.95 µM on DNA polymerase α (competitive with [3H]dGTP) and 0.35 µM at HSV DNA polymerase (competitive with [3H]dGTP). The IC50 came out at 2 µM on DNA polymerase α, 1.5 µM against HSV DNA polymerase and 300 µM at DNA polymerase γ.
Turning to `Nc1nc2c(ncn2[C@H]2C[C@@H](COP(=O)(O)OP(=O)(O)OP(=O)(O)O)[C@H](O)C2)c(=O)[nH]1` [L-2'CdG-TP], the half-maximal inhibitory concentration (IC50) is 470 µM on DNA polymerase α, 460 µM against HSV DNA polymerase, 215 µM against DNA polymerase γ and 1400 µM at DNA polymerase β.

(Values after patent EP0684822B1, “CARBOCYCLIC DEOXYGUANOSINE ANALOGS FOR THE TREATMENT OF VIRAL INFECTIONS” (SOUTHERN RESEARCH INSTITUTE, priority 1993, dated 1994).)
